“Also recorded” adds a separate entry of the source. Read-outs that look alike come from different tables or passages of the source.
What was measured:
[1] = cytotoxicity / cell viability MTT assay; type: cell-based; conditions: mouse, RAW 264.7 cells, RAW 264.7, 24 h
Method: (§1) Cell viability studies were evaluated by the MTT (3-[4,5-dimethylthiazol-2-yl]-2,5-diphenyl tetrazolium bromide) assay. In brief, RAW 264.7 cells (5 × 10^4 cells/well) were cultured and incubated in 96-well plates for 24 h. The samples were prepared in DMSO at different concentrations ([…]). The cells were then treated with samples in DMEM medium (10% FBS, […] streptomycin, and 100 IU/mL penicillin at 37 °C in a 5% CO2) for 24 h. The medium was then removed and each well was filled with fresh DMEM containing 0.5 mg/mL MTT solution for 4 h at 37 °C in a 5% CO2. After that, the medium was removed, and the formazan precipitate was dissolved in DMSO [21]. The absorbance was measured at 550 nm on a microplate reader. All processes were performed in triplicate.

RAW 264.7 cells = test: cytotoxicity / cell viability MTT assay; type: cell-based
Method: as §1

α-glucosidase = molecular target: T1, α-glucosidase (Saccharomyces cerevisiae, UniProt P53341); test: biochemical; conditions: for inhibition at 200 µg/mL: read-out: α-Glucosidase Inhibitory Activity % Inhibition at 200 µg/mL
T1 construct: purchased Sigma, St. Louis, MO, USA G5003
Method: A colorimetric α-glucosidase assay was carried out by the previously described procedure. Briefly, the sample solution was dissolved in DMSO after the solutions were diluted with a phosphate buffer (100 mM KH2PO4, pH 6.9) become DMSO (10%, v/v) concentration. The substrate, p-nitrophenyl α-D-glucoside (Sigma, St. Louis, USA, CAS No. N1377), (c 1.5 mM), was prepared by dissolving with phosphate buffer. The tested samples (50 uL) were combined with 100 μL of the α-glucosidase enzyme solution (0.35 U/mL, Sigma, St. Louis, MO, USA, CAS. No. G5003), then the mixture was pre-incubated for 10 min at 37 °C. The enzymatic reaction was started by applying substrate (100 μL, c 1.5 mM) into the mixture and incubated at 37 °C for 20 min. The reaction was subsequently terminated by the addition of Na2CO3 (1 mL, c 1 M). The absorption was immediately measured at 405 nm by determining the quantity of p-nitrophenol released from the substrate.

[2] = system: NO production in RAW 264.7 cells; test: nitric oxide (NO) production inhibitory activity in LPS-treated RAW 264.7 cells (Griess reaction); type: cell-based; conditions: for inhibition at 50 µg/mL: read-out: Anti-Inflammatory (NO Production Inhibitory Activity) % Inhibition at 50 µg/mL; for NO production inhibitory activity (in words): RAW 264.7 macrophage cells
Method: The NO inhibitory activity was performed using the same procedure as previously reported. RAW 264.7 (American Type Culture Collection, Manassas, VA, USA) were seeded at 4 × 10^4 cells/well in 96 well plates suspended in 100 μL DMEM supplemented with 10% FBS and incubated at 37 °C 5% CO2 overnight. Cells were incubated with 1 µg/mL LPS for 1 h and treated with various concentrations of sample compounds and vehicle control (DMSO) for 24 h. After 24 h, the NO production inhibitory was determined in the culture supernatant using the Griess reaction by adding 100 µL of Griess reagent in a 96 well plate for 10 min. The determination of nitric oxide was measured at 570 nm with Biochrom EZ Read 400 ELISA microplate reader (Biochrom Ltd., Cambridge, United Kingdom). Additionally, the data were presented as IC50 which was calculated with GraphPad Prism 6.0 software.

[3] = Mus musculus, RAW264.7, LPS 1 µg/mL, 24 h
[4] = read-out: α-Glucosidase Inhibitory Activity IC50

T1 sequence (P53341 whole entry): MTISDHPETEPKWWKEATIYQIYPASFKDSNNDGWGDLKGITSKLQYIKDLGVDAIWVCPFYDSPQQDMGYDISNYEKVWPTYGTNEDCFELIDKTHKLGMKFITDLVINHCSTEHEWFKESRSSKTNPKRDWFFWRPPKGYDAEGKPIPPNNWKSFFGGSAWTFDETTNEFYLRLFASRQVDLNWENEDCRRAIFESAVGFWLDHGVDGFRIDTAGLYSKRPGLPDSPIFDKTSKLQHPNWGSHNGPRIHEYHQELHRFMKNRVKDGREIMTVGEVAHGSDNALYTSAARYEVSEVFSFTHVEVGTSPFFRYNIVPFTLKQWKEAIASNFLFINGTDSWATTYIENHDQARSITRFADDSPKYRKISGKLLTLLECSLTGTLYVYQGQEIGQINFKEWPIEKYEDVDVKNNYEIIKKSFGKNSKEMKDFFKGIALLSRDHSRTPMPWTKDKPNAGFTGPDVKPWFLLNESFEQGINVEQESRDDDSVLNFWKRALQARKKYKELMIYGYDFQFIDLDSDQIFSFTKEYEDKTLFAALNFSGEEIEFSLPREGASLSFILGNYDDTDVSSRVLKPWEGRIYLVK

| IC50 ([2]; Mus musculus, RAW264.7, LPS 1 µg/mL, 24 h, read-out: Anti-Inflammatory (NO Production Inhibitory Activity) IC50) [µM] | Compound | viability at 24 h, 50 µg/mL [1] [%] | cytotoxicity against RAW 264.7 cells at 50 µg/mL (in words) (RAW 264.7 cells) | IC50 (α-glucosidase) [µM] | inhibition at 200 µg/mL (α-glucosidase) [%] | Anti-Inflammatory (NO Production Inhibitory Activity) IC50 ([2]; LPS 1 µg/mL, 24 h) | inhibition at 50 µg/mL [2, 3] [%] | NO production inhibitory activity (in words) [2] | IC50 (α-glucosidase; [4]) [µM] |
| --- | --- | --- | --- | --- | --- | --- | --- | --- | --- |
| – | COC(=O)C[C@@]12OC(=O)C[C@@H](C)[C@@H]1Oc1cccc(O)c1C2=O (relative stereo) [Compound 1, Daldiniaeschsone A] | > 75 | without toxicity; also recorded: no cytotoxicity | 160 ± 110 | 98.7 | inactive | 26.5 | no NO production inhibitory activities | – |
| – | C[C@H]1O[C@H](O[C@H]2[C@H](O)[C@@H](O)[C@@H](O[C@H]3[C@H](O)[C@@H](O)C(O)O[C@@H]3CO)O[C@@H]2CO)[C@H](O)[C@@H](O)[C@@H]1N[C@H]1C=C(CO)[C@@H](O)[C@H](O)[C@H]1O (some centres unmarked) [Acarbose, reference compound] | – | – | – | 95.6 | – | – | – | – |
| – | COC(=O)C[C@@]12OC(=O)C[C@@H](C)[C@@H]1Oc1ccc(-c3ccc4c(c3O)C(=O)[C@]3(CC(=O)OC)OC(=O)C[C@@H](C)[C@@H]3O4)c(O)c1C2=O [Compound 2, Daldiniaeschsone B] | – | without toxicity; also recorded: no cytotoxicity | 230 | 96.8 | inactive | 36.9 | no NO production inhibitory activities | – |
| – | O=C1CC[C@H](O)c2cccc(O)c21 [Compound 3, (+)-regiolone] | – | – | – | 97.8 | – | – | – | 850 ± 1190 |
| – | O=C1C[C@@H](O)[C@@H](O)c2cccc(O)c21 [Compound 4, (+)-3,4-dihydro-3,4,8-trihydroxy-1(2H)-naphthalenone] | – | – | – | 97.8 | – | – | – | 550 ± 1330 |
| – | C[C@H]1Cc2cccc(O)c2C(=O)O1 [Compound 5, (+)-mellein] | – | – | – | 97.5 | – | – | – | 760 ± 90 |
| 19.6 ± 0.62 | COc1ccc2c(c1)c(CC(=O)O)c(C)n2C(=O)c1ccc(Cl)cc1 [Indomethacin, reference compound] | 85 ± 2.92 | – | – | – | – | 71 | – | – |
